Experimental data from patent publication EP4389746A2, “P2X3 RECEPTOR ANTAGONISTS” (Recordati Industria Chimica E Farmaceutica SPA, priority 2022, dated 2024).

Tests used:
human P2X2/3 receptor = biological target: T1, human P2X2/3 receptor (Homo sapiens, UniProt P56373+Q9UBL9); experiment: Calcium fluorescence measurement: human P2X2/3 receptor activity inhibition (CHO-K1 cells, Fluo-8 NoWash, […]); format: cell-based; conditions: for IC50: CHO-K1 cells expressing human P2RX2/X3 channel, 10µM α,β-Met-ATP, read-out: h-P2X2/3 IC50; for Selectivity: ratio of IC50 of P2X2/3/ P2X3 receptors
T1 construct: expressed in transfected cells; host or cells: CHO-K1
T1 sequence (P56373 1-397): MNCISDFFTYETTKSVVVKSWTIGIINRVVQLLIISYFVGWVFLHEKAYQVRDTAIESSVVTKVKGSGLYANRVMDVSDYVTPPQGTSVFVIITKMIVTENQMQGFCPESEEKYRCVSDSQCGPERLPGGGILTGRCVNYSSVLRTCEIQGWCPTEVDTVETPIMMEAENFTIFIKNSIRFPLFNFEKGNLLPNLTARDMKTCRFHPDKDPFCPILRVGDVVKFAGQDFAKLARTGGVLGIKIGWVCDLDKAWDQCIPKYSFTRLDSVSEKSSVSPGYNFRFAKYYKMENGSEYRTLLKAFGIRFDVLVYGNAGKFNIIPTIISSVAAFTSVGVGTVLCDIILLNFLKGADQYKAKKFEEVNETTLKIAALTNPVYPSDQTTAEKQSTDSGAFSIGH
T1 sequence (Q9UBL9 1-471): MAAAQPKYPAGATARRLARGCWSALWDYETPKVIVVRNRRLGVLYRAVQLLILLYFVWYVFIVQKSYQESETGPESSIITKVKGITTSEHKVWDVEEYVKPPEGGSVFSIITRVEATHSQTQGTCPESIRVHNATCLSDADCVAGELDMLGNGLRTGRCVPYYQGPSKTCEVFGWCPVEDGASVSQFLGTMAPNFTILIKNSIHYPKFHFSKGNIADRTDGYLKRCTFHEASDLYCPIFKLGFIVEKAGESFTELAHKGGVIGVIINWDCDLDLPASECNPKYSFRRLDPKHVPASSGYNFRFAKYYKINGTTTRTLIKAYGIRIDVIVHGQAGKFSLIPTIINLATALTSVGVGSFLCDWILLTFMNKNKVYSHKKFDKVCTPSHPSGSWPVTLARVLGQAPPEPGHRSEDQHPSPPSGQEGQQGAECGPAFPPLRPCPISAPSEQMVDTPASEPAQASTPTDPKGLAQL
Description: Determination of human P2X2/3 receptor activity inhibition
The assay for the human P2RX2/X3 has been evaluated by the screening instrumentation using the […] as reader and the FLUO8-NoWash dye as fluorescent readout for calcium detection.
CHO-K1 cells recombinantly expressing the human P2RX2/X3 channel are maintained in DMEM F-12 (1:1) mixture (LONZA cat. n°: BE04-687F/U1) supplemented with 5 mL of 100 mM Sodium Pyruvate (LONZA cat. n° BE13-115E), 25 mL of 7.5% Sodium Bicarbonate (LONZA cat. n° BE17-613E), 6.5 mL of 1M Hepes (LONZA cat. n° BE17-737E), 5 mL of 100X Penicillin/Streptomycin mixture (LONZA cat. n° DE17-602E) and 50 mL of Fetal Bovine Serum (Sigma cat. n° F7524), 5 µg/mL Puromycin dihydrochloride (Sigma cat. n° P9620) and 1 mg/ml G418 disulfate salt (Sigma cat. n° G8168).
Cells were seeded into black-walled clear bottom 384 Multiwell plates at a density of 10.000 cells/well in complete medium. After 24 h the culture medium was replaced with 20 µL/well of Fluo-8 NoWash calcium sensitive dye (AAT Bioquest cat. n° 36316) diluted in Tyrode's buffer (Standard Tyrode's buffer: in house solution, 130 mM NaCl, 5 mM KCl, 2 mM CaCl2, 5 mM NaHCO3, 1 mM MgCl2, 20 mM HEPES, pH 7.4).
The plates were incubated for 1 hours at 37°C and injected with 10 µL/well of test compounds at 3X concentration in Tyrode's buffer with the […]. After 5 minutes a second injection of 15 µL/well of 10µM α,β-Met-ATP in Tyrode's buffer (α,β-Met-ATP: from Tocris cat. n° 3209) was performed and the signal of the emitted fluorescence was recorded by […] (Molecular Devices).
The selectivity is expressed as the ratio of IC50 of P2X2/3/ P2X3 receptors. Table 8: Human P2X3 and h-P2X2/3 receptor antagonist activity for selected compounds of the invention.

human P2X3 receptor = biological target: T2, human P2X3 receptor (Homo sapiens, UniProt P56373); experiment: Calcium luminescence measurement: human P2X3 receptor activity inhibition (CHO-K1 cells, photoprotein readout, FLEXSTATION); format: cell-based; conditions: CHO-K1 cells co-expressing human P2X3 and Ca2+ sensitive photoprotein; agonist α,β-Met-ATP; read-out: h-P2X3 IC50
T2 construct: expressed in transfected cells; host or cells: CHO-K1
T2 sequence (P56373 1-397): T1 sequence (P56373 1-397)
Description: Determination of human P2X3 receptor activity inhibition
The assay for the human purinergic P2RX3 receptor has been adapted to the internal screening instrumentation using the FLEXSTATION as reader and a photoprotein as luminescent readout. The assay consists of CHO-K1 cells recombinantly co-expressing the human P2rx3 receptor and a Ca^2+ sensitive photoprotein. Cells are maintained in DMEM F-12 (1:1) mixture (LONZA cat. n° BE04-687F/U1) supplemented with 9 mL of 100 mM Sodium Pyruvate (LONZA cat. n° BE13-115E), 29 mL of 7.5% Sodium Bicarbonate (LONZA cat. n° BE17-613E), 5.5 mL of 1 M Hepes (LONZA cat. n° BE17-737E), 5 mL of 100X Penicillin/Streptomycin mixture (LONZA cat. n° DE17-602E) and 50 mL of Fetal Bovine Serum (Sigma cat. n° F7524), 1 mg/mL G418 disulfate salt (Sigma cat. n° G8168) and 5 µg/ml Puromycin dihydrochloride (Sigma cat. n° P9620). Standard propagation conditions consist of seeding in a P75 flask twice a week, recovering about 20×10^6 cells, corresponding to about 80% confluency. Cells were seeded into black-walled clear bottom 96 well plates at a density of 40000 cells/well in a complete medium. After 24 h the culture medium was replaced with 200 µL/well of coelenterazine in Tyrode's buffer (Standard Tyrode's buffer: in house solution, 130 mM NaCl, 5 mM KCl, 2 mM CaCl2, 5 mM NaHCO3, 1 mM MgCl2, 20 mM HEPES, pH 7.4). Coelenterazine was purchased from BIOSYNTH (cat. n° C-7001). 10 mM stock solution was prepared in DMSO and glutathione and stored at -20° C. The plates were incubated for 4 hours at 37°C, and injected with 10 µL/well of test compounds at 25X concentration in Tyrode's buffer. After 4 minutes a second injection of 50 µL/well of 5X α,β-Met-ATP in Tyrode's buffer (α,β-Met-ATP: from Tocris (cat. n° 3209), was dissolved at 100 mM in water and stored in aliquots at -20°C) was performed and the signal of the emitted luminescence was recorded by FLEXSTATION III (Molecular Devices). […]
The inhibition curves of the tested compounds at cloned P2X3 receptor were determined by nonlinear regression analysis using software Prism 5.0 (Graphpad, San Diego, CA). The IC50 values and pseudo-Hill slope coefficients were estimated by the program.

| Structure (SMILES) | IC50 (human P2X2/3 receptor) | Selectivity (human P2X2/3 receptor) | IC50 (human P2X3 receptor) |
| --- | --- | --- | --- |
| CC(C)C1CN2C(=O)N(Cc3ccc(Cl)cc3)c3cc(N4CCOCC4)cnc3C2=N1 (racemic) [Example 9, 6-[(4-Chlorophenyl)methyl]-8-(morpholin-4-yl)-2-(propan-2-yl)-2,6-dihydroimidazo[1,2-c]pyrido[2,3-e]pyrimidin-5(3H)-one] | 7410 nM | 44 | 167 nM |
| COC(C)(C)C1CN2C(=O)N(Cc3ccc(Cl)cc3)c3cc(N4CCOCC4)cnc3C2=N1 (centres unmarked) [Example 5, 6-(4-Chlorobenzyl)-2-(2-methoxypropan-2-yl)-8-(morpholin-4-yl)-2,6-dihydroimidazo[1,2-c]pyrido[2,3-e]pyrimidin-5(3H)-one] | 19000 nM | 170 | 111 nM |
| CC(C)C1CN2C(=O)N(CC(=O)Nc3ccc(F)cn3)c3cc(N4CCOCC4)cnc3C2=N1 (centres unmarked) [Example 6, N-(5-Fluoropyridin-2-yl)-2-[8-(morpholin-4-yl)-5-oxo-2-(propan-2-yl)-2,3-dihydroimidazo[1,2-c]pyrido[2,3-e]pyrimidin-6(5H)-yl]acetamide] | 221 nM | 6.5 | 33.5 nM |
| CC(C)(CO)C1CN2C(=O)N(Cc3ccc(Cl)cc3)c3cc(N4CCOCC4)nnc3C2=N1 (centres unmarked) [Example 17, 5-[(4-Chlorophenyl)methyl]-9-(1-hydroxy-2-methylpropan-2-yl)-3-(morpholin-4-yl)-8,9-dihydroimidazo[1',2':1,6]pyrimido[5,4-c]pyridazin-6(5H)-one] | > 30000 nM | >722 | 41.5 nM |
| COC(C)(C)C1CN2C(=O)N(Cc3ccc(Cl)cc3)c3cc(N4CCOCC4)nnc3C2=N1 (centres unmarked) [Example 18, 5-[(4-Chlorophenyl)methyl]-9-(2-methoxypropan-2-yl)-3-(morpholin-4-yl)-8,9-dihydroimidazo[1',2':1,6]pyrimido[5,4-c]pyridazin-6(5H)-one] | > 30000 nM | >646 | 46.4 nM |
| CC(C)(O)C1CN2C(=O)N(Cc3ccc(Cl)cc3)c3cc(N4CCOCC4)nnc3C2=N1 (centres unmarked) [Example 19, 5-[(4-Chlorophenyl)methyl]-9-(2-hydroxypropan-2-yl)-3-(morpholin-4-yl)-8,9-dihydroimidazo[1',2':1,6]pyrimido[5,4-c]pyridazin-6(5H)-one] | > 30000 nM | >961 | 31.2 nM |
| COc1ccc(CN2C(=O)N3C(=NC(=O)C3C(C)(C)C)c3ncc(N4CCOCC4)cc32)cc1 (centres unmarked) [Example 20, 3-tert-Butyl-6-[(4-methoxyphenyl)methyl] -8-(morpholin-4-yl)imidazo[1,2-c]pyrido[2,3-e]pyrimidine-2,5(3H,6H)-dione] | 28500 nM | 249 | 114 nM |

Second part, the molecule after the results:

| IC50 (human P2X2/3 receptor) | Selectivity (human P2X2/3 receptor) | IC50 (human P2X3 receptor) | Structure (SMILES) |
| --- | --- | --- | --- |
| 3430 nM | 51 | 67 nM | CC(C)(C)C1C(=O)N=C2c3ncc(N4CCOCC4)cc3N(Cc3ccc(Cl)cc3)C(=O)N21 (centres unmarked) [Example 21] |
| > 30000 nM | >260 | 115 nM | CC(C)C1C(=O)N=C2c3ncc(N4CCC(O)CC4)cc3N(Cc3ccc(Cl)cc3)C(=O)N21 (centres unmarked) [Example 26, 6-[(4-Chlorophenyl)methyl]-8-(4-hydroxypiperidin-1-yl)-3-(propan-2-yl)imidazo[1,2-c]pyrido[2,3-e]pyrimidine-2,5(3H,6H)-dione] |
| 19700 nM | 566 | 34.8 nM | COc1ccc(Cn2c(=O)n3c(C(C)(C)C)nnc3c3ncc(N4CCOCC4)cc32)cc1 [Example 29, 3-tert-Butyl-6-(4-methoxybenzyl)-8-(morpholin-4-yl)pyrido[2,3-e][1,2,4]triazolo[4,3-c]pyrimidin-5(6H)-one] |
| > 30000 nM | >466 | 64.3 nM | CC(C)(C)c1nnc2c3ncc(N4CCOCC4)cc3n(Cc3ccc(Cl)cc3)c(=O)n12 [Example 30, 3-tert-Butyl-6-[(4-chlorophenyl)methyl]-8-(morpholin-4-yl)pyrido[2,3-e][1,2,4]triazolo[4,3-c]pyrimidin-5(6H)-one] |
| 8150 nM | >1000 | 7.2 nM | CC(C)(C)c1nnc2c3ncc(N4CCOCC4)cc3n(Cc3ccc(Br)cc3)c(=O)n12 [Example 31, 6-[(4-Bromophenyl)methyl] -3-tert-butyl-8-(morpholin-4-yl)pyrido[2,3-e][1,2,4]triazolo[4,3-c]pyrimidin-5(6H)-one] |
| > 30000 nM | >1000 | 21 nM | COC(C)(C)c1nnc2c3ncc(N4CCOCC4)cc3n(Cc3ccc(Cl)cc3)c(=O)n12 [Example 32, 6-(4-Chlorobenzyl)-3-(2-methoxypropan-2-yl)-8-(morpholin-4-yl)pyrido[2,3-e][1,2,4]triazolo[4,3-c]pyrimidin-5(6H)-one] |
|  |  | 215 nM | CC(C)(C)c1nc2c3ncc(N4CCCC(O)C4)cc3n(Cc3ccc(Cl)cc3)c(=O)n2n1 (centres unmarked) [Example 52, 2-tert-Butyl-6-[(4-chlorophenyl)methyl]-8-(3-hydroxypiperidin-1-yl)pyrido[2,3-e][1,2,4]triazolo[1,5-c]pyrimidin-5(6H)-one] |
|  |  | 24.9 nM | CC(C)(C)Cc1nc2c3nnc(N4CCOCC4)cc3n(Cc3ccc(Cl)cc3)c(=O)n2n1 [Example 54, 5-[(4-Chlorophenyl)methyl]-9-(2,2-dimethylpropyl)-3-(morpholin-4-yl)[1,2,4]triazolo[1',5':1,6]pyrimido[5,4-c]pyridazin-6(5H)-one] |
